These results are taken from US20240300886A1, “ARYLCYCLOHEXYLAMINE DERIVATIVES AND THEIR USE IN THE TREATMENT OF PSYCHIATRIC DISORDERS” (GILGAMESH PHARMACEUTICALS, INC., priority 2021, published 2024).

Data set [1] in a line: Oral bioavailability in rats, Method A (plasma PK). It counts as in vivo, Sprague Dawley rats. Conditions: rat plasma. Here is the method: Animals. Male Sprague Dawley rats were used in these studies. Animals were randomly assigned to treatment groups and were fasted for 4 h before dosing.
Drugs. Test compounds were dissolved in normal saline and administered intravenously (iv) or orally (po) at a dose of 10 mg/kg (calculated based on freebase) and at a volume of 5 mL/kg body weight. Compounds were tested as the racemates or pure enantiomers, as indicated.
Sample Collection and Bioanalysis. Blood samples were collected under 2,2,2-tribromoethanol anesthesia (150 mg/kg, ip) from the orbital sinus at 0.083, 0.25, 0.5, 1, 2, 4, 8 and 24 h (4 animals per time point) into microcontainers containing K2EDTA. Immediately after collection of blood, rats were euthanized by […]. All samples were immediately processed, flash-frozen, and stored at −70° C. until subsequent analysis. Plasma samples were separated by centrifugation of whole blood and aliquots (50 μL) were mixed with 200 μL of internal standard solution (400 ng/mL in 1:1 v/v CH3CN:MeOH). After mixing by pipetting and centrifuging for 4 min at 6,000 rpm, 0.5 μL of each supernatant was analyzed for drug using a fit-for-purpose liquid chromatography-tandem mass spectrometry (LC-MS/MS) method, with authentic samples of each analyte used for calibration and identification.
Data Analysis. The drug concentrations of samples below the lower limit of quantitation (LLOQ) were designated as zero. Pharmacokinetic data analysis was performed using noncompartmental, bolus injection or extravascular input analysis models in WinNonlin 5.2 (PharSight). Data points below LLOQ were presented as missing to improve validity of t1/2 calculations.

A short description of data set [2]: Oral bioavailability in monkeys (plasma PK). It counts as in vivo, Cynomolgus monkeys. Conditions: for AUC(0-inf): male, cynomolgus monkey. How it is done: Animals. Male Cynomolgus monkeys were used in these studies. Animals were randomly assigned to treatment groups and were fasted overnight before dosing.
(§1) Drugs. Compound 2R was dissolved in a vehicle consisting of normal saline. It was then administered intravenously (iv) or orally (po) at a dose of 1 mg/kg (calculated based on freebase) and at a volume of 2 mL/kg body weight (n=3 per dosing route).
(§2) Sample Collection and Bioanalysis. Blood samples (approximately 500 μL) were collected under manual restraint from the cephalic vein at 0.08, 0.25, 0.5, 1, 2, 4, 8, and 24 h ([…]) into K2EDTA tubes and placed on wet ice. Immediately after blood collection, plasma was harvested by centrifugation at 3,000 g for 5 min at 4° C. within 15 minutes of collection and subsequently stored at −70±10° C. until bioanalysis. For bioanalysis, for diluted plasma samples, an aliquot of 2 μL sample was diluted with 18 μL blank matrix and the dilution factor was 10. For non-diluted samples, an aliquot of 20 μL sample was added with 300 μL internal standard (diclofenac, 60 ng/mL) in acetonitrile. The mixture was vortexed for 10 minutes and centrifuged at 5,800 rpm for 10 minutes. 90 μL of supernatant was transferred to a 96 well plate and analyzed with a fit-for-purpose LC-MS/MS method, with authentic samples of each analyte used for calibration and identification.
Data Analysis. Pharmacokinetic parameters were estimated using the non-compartmental analysis tool of Phoenix® a WinNonlin software (Ver 8.2).

Data set [3] is described as follows: Oral bioavailability in minipigs (plasma PK). It counts as in vivo, Bama minipigs. To be noted: for AUC(0-inf): male, Bama. Here is the method:
Animals. Male Bama minipigs were used in these studies. Animals were randomly assigned to treatment groups and were fasted overnight before dosing.
as §1, §2
Data Analysis. Pharmacokinetic parameters were estimated using the non-compartmental analysis tool of Phoenix® WinNonlin software (Ver 8.2).

Data set [4] can be described thus: Stability in liver microsomes (Example 21), CD-1 mouse. It counts as in vitro ADME. To be noted: male, pH 7.4, CD-1 Mouse liver microsomes, 0.5 mg/mL protein. Here is the method:
General Procedure. Briefly, test compounds (final concentration 1 μM) were incubated in duplicate with liver microsomes from male animals of the indicated species (final protein concentration 0.5 mg/mL) in 50 mM sodium phosphate buffer (pH 7.4) with or without NADPH (1 mM). Total incubation volume was 500 μL. At 0, 5, 15, 30, and 60 min, aliquots of 50 μL were withdrawn, quenched with acetonitrile (150 μL), and analyzed for parent compound remaining using a fit-for-purpose LC-MS/MS method. Intrinsic clearance and half-life were calculated. Clearance values below zero were rounded to zero.
In general terms: Microsomes from liver hold many membrane-bound enzymes, among them those of drug oxidation.

The Cmax is the maximum level reached in the sampled fluid or tissue. A word on the microsomal CLint: it is the capacity of the preparation to metabolise the compound, expressed as a volume cleared per time.

The structures appear in SMILES notation. Read-outs that look alike come from different tables or passages of the source.

For `CNC1(c2ccccc2Cl)CCCCC1=O` (racemic) [racemic ketamine, ketamine], the AUC(0-inf) in data set [1] (male, Sprague Dawley, 10 mg/kg iv, read-out: AUC0-inf (iv) (converted)) is 1350 ng·h/mL; in data set [1] (male, Sprague Dawley, 10 mg/kg po, read-out: AUC0-inf (po) (converted)), 125 ng·h/mL. Besides, the half-life in data set [1] (male, Sprague Dawley, 10 mg/kg iv, read-out: t1/2 (iv)) is 41.6 min; in data set [1] (male, Sprague Dawley, 10 mg/kg po, read-out: t1/2 (po)), 33.7 min. In data set [1] (male, Sprague Dawley, 10 mg/kg po), this compound yielded a Cmax of 190 ng/mL. Further, the F in data set [1] (10 mg/kg) turned out to be 9.07%.

As for `CN[C@@]1(c2ccc(F)cc2)CCCCC1=O` [Compound 2R, (R)-2-(4-fluorophenyl)-2(methylamino)cyclohexan-1-one], the AUC(0-inf) in data set [2] (monkey plasma, 1 mg/kg iv, read-out: AUC0-inf (iv) (converted)) was 964 ng·h/mL; in data set [2] (monkey plasma, 1 mg/kg po, read-out: AUC0-inf (po) (converted)), 259 ng·h/mL; in data set [3] (minipig plasma, 1 mg/kg iv, read-out: AUC0-inf (iv) (converted)), 566 ng·h/mL; in data set [3] (minipig plasma, 1 mg/kg po, read-out: AUC0-inf (po) (converted)) it was 242 ng·h/mL. The F in data set [2] (monkey plasma, 1 mg/kg) worked out at 27%; in data set [3] (minipig plasma, 1 mg/kg) it was 42.7%. In addition, the “oral bioavailability (in words)” value is “moderate” in data set [2] (monkeys, 1 mg/kg) and “good” in data set [3] (minipigs, 1 mg/kg).

For `CN[C@]1(c2ccc(F)cc2)CCCCC1=O` [Compound 2S, (S)-2-(4-fluorophenyl)-2-(methylamino)cyclohexan-1-one], the microsomal CLint at 1 μM in data set [4] turned out to be 3.5 µL/min/mg.
